Test results taken from patent publication US20100174065A1, “COMPOUNDS” (GLAXO GROUP LIMITED, priority 2007, published 2010).
Counter-ions that a name gives are not always drawn.

Each compound was assayed against T1, human S1P1 receptor (Homo sapiens, UniProt P21453) (assay: S1P1 GTPγS assay). Conditions: agonist activity, [35S]-GTPγS binding, human S1P1 rat hepatoma membranes.
T1 construct: expressed in transfected cells; membranes
Assay type: biochemical
Protocol: (§1) For membrane preparations all steps were performed at 4° C. Rat hepatoma cells stably expressing the human S1P1 receptor or Rat Basophilic Leukaemia cells (RBL) stably expressing human S1P3 receptor were grown to 80% confluency before being harvested into 10 ml Phospho-Buffered Saline (PBS) and centrifuged at 1200 rpm for 5 minutes. After removal of the supernatant, the pellet was re-suspended and cells were homogenised within a glass Waring blender for 2 bursts of 15 secs in 200 mls of buffer (50 mM HEPES, 1 mM leupeptin, 25 μg/ml bacitracin, 1 mM EDTA, 1 mM PMSF, 2 μM pepstatin A). The blender was plunged into ice for 5 mins after the first burst and 10-40 mins after the final burst to allow foam to dissipate. The material was then spun at 500 g for 20 mins and the supernatant spun for 36 mins at 48,000 g. The pellet was resuspended in the same buffer as above but without PMSF and pepstatin A. The material was then forced through a 0.6 mm needle, made up to the required volume, (usually ×4 the volume of the original cell pellet), aliquoted and stored frozen at −80° C.
as §1, with “All” for “For membrane preparations all”, “Cells” for “Rat hepatoma cells stably expressing the human S1P1 receptor or Rat Basophilic Leukaemia cells (RBL) stably expressing human S1P3 receptor were grown to 80% confluency before being harvested into 10 ml Phospho-Buffered Saline (PBS) and centrifuged at 1200 rpm for 5 minutes. After removal of the supernatant, the pellet was re-suspended and cells”
Human S1P1 rat hepatoma membranes (1.5 μg/well) were adhered to a wheatgerm agglutinin (WGA)-coated scintillation proximity assay (SPA) beads (0.125 mg/well) in assay buffer (HEPES 20 mM, MgCl2 10 mM, NaCl 100 mM and pH adjusted to 7.4 using KOH 5M, GDP 10 μM FAC (final assay concentration) and saponin 90 μg/ml FAC was also added).
After 30 minutes pre-coupling on ice the bead and membrane suspension was dispensed into a white Greiner polypropylene LV384-well plate ([…]), containing 0.1 μl of the compound. 5 μl/well [^355]-GTPγS (0.5 nM final radioligand conc) made up in assay buffer was then added to agonist plates. The final assay cocktail (10.1 μl) was then centrifuged at 1000 rpm for 5 minutes then read immediately on a Viewlux reader.
All test compounds were dissolved in DMSO at a concentration of 10 mM and were prepared in 100% DMSO using a 1 in 4 dilution step to provide 11 point dose response curves. The dilutions were transferred to the assay plates ensuring that the DMSO concentration was constant across the plate for all assays.
All data was normalized to the mean of 16 high and 16 low control wells on each plate. A four parameter curve fit was then applied.
S1P1 expressing RH7777 membranes (1.5 μg/well) membranes (1.5 μg/well) were homogenised by passing through a 23G needle. These were then adhered to WGA-coated SPA beads (0.125 mg/well) in assay buffer (HEPES 20 mM, MgCl2 10 mM, NaCl 100 mM and pH adjusted to 7.4 using KOH 5M). GDP 10 μM FAC and saponin 90 μg/ml FAC were also added
After 30 minutes precoupling on ice, the bead and membrane suspension was dispensed into white Greiner polypropylene LV 384-well plates (5 μl/well), containing 0.1 μl of compound. 5 μl/well [^35S]-GTPγS (0.5 nM for S1P1 or 0.3 nM for S1P3 final radioligand concentration) made in assay buffer was then added to the plates. The final assay cocktail (10.1 μl) was then sealed, spun on a centrifuge, then read immediately on a Viewlux instrument.

T1 sequence (P21453 whole entry): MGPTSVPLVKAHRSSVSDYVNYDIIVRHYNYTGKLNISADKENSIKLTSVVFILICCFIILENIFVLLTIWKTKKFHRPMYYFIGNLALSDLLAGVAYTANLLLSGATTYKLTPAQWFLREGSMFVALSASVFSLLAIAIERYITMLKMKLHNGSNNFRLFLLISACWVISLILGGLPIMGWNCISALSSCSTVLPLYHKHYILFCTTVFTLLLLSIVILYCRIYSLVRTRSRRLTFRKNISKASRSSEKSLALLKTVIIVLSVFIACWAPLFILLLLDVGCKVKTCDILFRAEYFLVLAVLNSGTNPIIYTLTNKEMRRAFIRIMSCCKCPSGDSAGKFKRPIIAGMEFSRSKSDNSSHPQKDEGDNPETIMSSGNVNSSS

| SMILES | EC50 [nM] |
| --- | --- |
| CC(C)Oc1ccc(-c2nc(-c3ccc4c(c3)CN(CCCC(=O)O)CCO4)no2)cc1C#N [Example 39, 4-[7-(5-{3-Cyano-4-[(1-methylethyl)oxy]phenyl}-1,2,4-oxadiazol-3-yl)-2,3-dihydro-1,4-benzoxazepin-4(5H)-yl]butanoic acid] | < 100 |
| CC(C)Oc1ccc(-c2nc(-c3cccc4c3OCCNC4)no2)cc1Cl [Example 31, 9-(5-{3-Chloro-4-[(1-methylethyl)oxy]phenyl}-1,2,4-oxadiazol-3-yl)-2,3,4,5-tetrahydro-1,4-benzoxazepine hydrochloride] | < 100 |
| CC(C)Oc1ccc(-c2nc(-c3ccc4c(c3)CCNCC4)no2)cc1C(F)(F)F [Example 19, 7-{5-[4-[(1-Methylethyl)oxy]-3-(trifluoromethyl)phenyl]-1,2,4-oxadiazol-3-yl}-2,3,4,5-tetrahydro-1H-3-benzazepine hydrochloride] | < 100 |
| CC(C)Oc1ccc(-c2nc(-c3cccc4c3OCCN(CCCC(=O)O)C4)no2)cc1Cl [Example 33, 4-[9-(5-{3-Chloro-4-[(1-methylethyl)oxy]phenyl}-1,2,4-oxadiazol-3-yl)-2,3-dihydro-1,4-benzoxazepin-4(5H)-yl]butanoic acid] | < 100 |
| CC(C)Oc1ccc(-c2nc(-c3ccc4c(c3)OCCNC4)no2)cc1C#N [Example 41, 2-[(1-Methylethyl)oxy]-5-[3-(2,3,4,5-tetrahydro-1,4-benzoxazepin-8-yl)-1,2,4-oxadiazol-5-yl]benzonitrile] | < 100 |
| CC(C)Oc1ccc(-c2nc(-c3cccc4c3OCCNC4)no2)cc1C#N [Example 32, 2-[(1-Methylethyl)oxy]-5-[3-(2,3,4,5-tetrahydro-1,4-benzoxazepin-9-yl)-1,2,4-oxadiazol-5-yl]benzonitrile hydrochloride] | < 100 |

Now from value to compound:

| EC50 [nM] | SMILES |
| --- | --- |
| ≤ 10 | CC(C)Oc1ccc(-c2nc(-c3ccc4c(c3)CCN(CC(=O)O)CC4)no2)cc1C(F)(F)F [Example 24, (7-{5-[4-[(1-Methylethyl)oxy]-3-(trifluoromethyl)phenyl]-1,2,4-oxadiazol-3-yl}-1,2,4,5-tetrahydro-3H-3-benzazepin-3-yl)acetic acid] |
| < 100 | CC(C)Oc1ccc(-c2nc(-c3cccc4c3OCCN(CCC(=O)O)C4)no2)cc1Cl [Example 47, 3-[9-(5-{3-Chloro-4-[(1-methylethyl)oxy]phenyl}-1,2,4-oxadiazol-3-yl)-2,3-dihydro-1,4-benzoxazepin-4(5H)-yl]propanoic acid] |
| < 100 | CC(C)Oc1ccc(-c2nc(-c3ccc4c(c3)CCN(CC(=O)O)CC4)no2)cc1Cl [Example 22, [7-(5-{3-Chloro-4-[(1-methylethyl)oxy]phenyl}-1,2,4-oxadiazol-3-yl)-1,2,4,5-tetrahydro-3H-3-benzazepin-3-yl]acetic acid] |
| ≤ 10 | CC(C)Oc1ccc(-c2nc(-c3ccc4c(c3)CCN(CCC(=O)O)CC4)no2)cc1Cl [Example 21, 3-[7-(5-{3-Chloro-4-[(1-methylethyl)oxy]phenyl}-1,2,4-oxadiazol-3-yl)-1,2,4,5-tetrahydro-3H-3-benzazepin-3-yl]propanoic acid] |
| ≤ 10 | CC(C)Oc1ccc(-c2nc(-c3ccc4c(c3)CCN(CC(=O)O)CC4)no2)cc1C#N [Example 23, [7-(5-{3-Cyano-4-[(1-methylethyl)oxy]phenyl}-1,2,4-oxadiazol-3-yl)-1,2,4,5-tetrahydro-3H-3-benzazepin-3-yl]acetic acid] |
| < 100 | CC(C)Oc1ccc(-c2nc(-c3cccc4c3CCCN(CC(=O)O)C4)no2)cc1Cl [Example 12, [6-(5-{3-Chloro-4-[(1-methylethyl)oxy]phenyl}-1,2,4-oxadiazol-3-yl)-1,3,4,5-tetrahydro-2H-2-benzazepin-2-yl]acetic acid hydrochloride] |
| ≤ 10 | CC(C)Oc1ccc(-c2nc(-c3ccc4c(c3)CCN(CCCC(=O)O)CC4)no2)cc1C#N [Example 27, 4-[7-(5-{3-cyano-4-[(1-methylethyl)oxy]phenyl}-1,2,4-oxadiazol-3-yl)-1,2,4,5-tetrahydro-3H-3-benzazepin-3-yl]butanoic acid hydrochloride] |
